Results reported in ChEMBL document CHEMBL1201862, “PubChem BioAssay data set” (2004).
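Interpolation was linear, between the two tested concentrations surrounding the appropriate level; five concentrations were tested over 48 hours in 96-well plates. GI50 marks 50% less growth.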 Activity calls are given as the source filed them. Rule as the data show it: active = GI50 up to about 1.1 µM and inactive = higher.

Tests used:
Assay in all cases: NCI anticancer screen, dose series, 48 h
IGROV-1 = system: IGROV-1
U-251 = system: U-251
Malme-3M = system: Malme-3M
TK-10 = system: TK-10
NCI-H226 = system: NCI-H226
ACHN = system: ACHN
UACC-62 = system: UACC-62
MDA-MB-231 = system: MDA-MB-231
SR = system: SR
CAKI-1 = system: CAKI-1
HOP-62 = system: HOP-62
RPMI-8226 = system: RPMI-8226
MOLT-4 = system: MOLT-4
MCF7 = system: MCF7
SK-MEL-5 = system: SK-MEL-5
SNB-75 = system: SNB-75
HCT-15 = system: HCT-15
OVCAR-5 = system: OVCAR-5
A549 = system: A549
SF-539 = system: SF-539

Measured: GI50

COc1cc([N+](=O)[O-])cc2c1NC(=O)C2(C)SC (centres undefined)
> 100 µM: HCT-15
inactive: IGROV-1 > 100 µM | U-251 > 100 µM | Malme-3M > 100 µM | TK-10 > 100 µM | NCI-H226 > 100 µM | ACHN > 100 µM | UACC-62 96.8 µM | MDA-MB-231 > 100 µM | SR 68.2 µM | CAKI-1 > 100 µM | HOP-62 > 100 µM | RPMI-8226 > 100 µM | MOLT-4 31.6 µM | MCF7 79.4 µM | SK-MEL-5 > 100 µM | SNB-75 38.2 µM | OVCAR-5 > 100 µM | A549 > 100 µM

CC1(C)CCCC2(C)C3=C(CCC12)C(=O)OC3 (centres undefined)
87.9 µM: HCT-15
inactive: IGROV-1 > 100 µM | U-251 > 100 µM | Malme-3M > 100 µM | TK-10 > 100 µM | NCI-H226 > 100 µM | ACHN > 100 µM | UACC-62 93.5 µM | MDA-MB-231 > 100 µM | SR 39.4 µM | CAKI-1 53.6 µM | HOP-62 > 100 µM | RPMI-8226 19.6 µM | MOLT-4 18.3 µM | MCF7 > 100 µM | SF-539 > 100 µM | SK-MEL-5 42.7 µM | SNB-75 > 100 µM | OVCAR-5 > 100 µM | A549 > 100 µM

COc1cc2c(/C=C3/C(=O)N(C)c4ccc(O)cc43)c(Cl)[nH]c2cc1C
active: IGROV-1 0.733 µM | U-251 0.402 µM | Malme-3M 0.179 µM | NCI-H226 0.516 µM | ACHN 0.532 µM | UACC-62 0.281 µM | MDA-MB-231 0.738 µM | SR 0.133 µM | CAKI-1 0.394 µM | HOP-62 0.327 µM | RPMI-8226 0.35 µM | MOLT-4 0.209 µM | MCF7 0.502 µM | SF-539 0.248 µM | SK-MEL-5 0.282 µM | SNB-75 0.439 µM | A549 0.667 µM
inactive: TK-10 2.81 µM | OVCAR-5 3.79 µM
0.426 µM: HCT-15

CC(Br)C(=O)NN1C2=C(Nc3ccccc31)c1cccc3cccc2c13 (centres undefined)
inactive: IGROV-1 34.4 µM | U-251 41.5 µM | Malme-3M > 100 µM | TK-10 96.4 µM | NCI-H226 > 100 µM | ACHN 31.2 µM | MDA-MB-231 > 100 µM | SR 41 µM | CAKI-1 74 µM | HOP-62 22 µM | RPMI-8226 48.4 µM | MOLT-4 36.6 µM | MCF7 34.5 µM | SF-539 > 100 µM | SK-MEL-5 62.1 µM | SNB-75 40.9 µM | OVCAR-5 > 100 µM | A549 57.9 µM
66.1 µM: HCT-15

COc1cc(-c2cc(=O)c3c(OC)c(OC)c(OC)c(OC)c3o2)c(OC)c(OC)c1OC
inactive: IGROV-1 12.3 µM | U-251 48.1 µM | Malme-3M 23.8 µM | TK-10 61.7 µM | NCI-H226 38.1 µM | ACHN 22 µM | UACC-62 21.2 µM | MDA-MB-231 24.3 µM | SR 27.4 µM | CAKI-1 27.5 µM | HOP-62 > 100 µM | RPMI-8226 24.5 µM | MOLT-4 72.6 µM | MCF7 47.2 µM | SF-539 47.8 µM | SK-MEL-5 36.1 µM | SNB-75 16.4 µM | OVCAR-5 > 100 µM | A549 48.1 µM
30.3 µM: HCT-15

CN1c2ccc(O)c(O)c2-c2cc(O)cc3c2C1CCC3 (centres undefined)
20.6 µM: HCT-15
inactive: IGROV-1 11.6 µM | U-251 23.4 µM | Malme-3M 15.9 µM | TK-10 18 µM | NCI-H226 27.9 µM | ACHN 16.7 µM | UACC-62 16.3 µM | MDA-MB-231 23.7 µM | SR 7 µM | CAKI-1 20.3 µM | HOP-62 14.1 µM | RPMI-8226 3.31 µM | MOLT-4 7.4 µM | MCF7 14.2 µM | SF-539 21.6 µM | SK-MEL-5 15.7 µM | SNB-75 16.3 µM | OVCAR-5 24.5 µM | A549 29.9 µM

C=C1[C@H](OCC(C)C)[C@@H](OCC(C)C)[C@@H](O)C(C)(C)/C=C/[C@H](C)C(=O)[C@@]2(O)C[C@H](C)[C@H](O)[C@@H]2[C@H]1OCC(C)C
6.92 µM: HCT-15
inactive: U-251 > 7.5 µM | TK-10 5.78 µM | ACHN > 7.5 µM | UACC-62 7.19 µM | MDA-MB-231 3.25 µM | SR > 7.5 µM | CAKI-1 2.57 µM | HOP-62 1.16 µM | MCF7 > 7.5 µM | SF-539 2.83 µM | SK-MEL-5 7.18 µM | SNB-75 3.02 µM | OVCAR-5 > 7.5 µM
active: MOLT-4 0.676 µM

N=C1N(S(=O)(=O)c2ccccc2)[C@@H](Cc2ccccc2)[C@H](c2ccccc2)C1(c1ccccc1)c1ccccc1
> 100 µM: HCT-15
inactive: IGROV-1 > 100 µM | U-251 64.1 µM | Malme-3M > 100 µM | TK-10 > 100 µM | ACHN > 100 µM | UACC-62 > 100 µM | MDA-MB-231 > 100 µM | SR 41.3 µM | CAKI-1 > 100 µM | HOP-62 > 100 µM | RPMI-8226 14 µM | MOLT-4 16.8 µM | MCF7 > 100 µM | SF-539 > 100 µM | SK-MEL-5 23.6 µM | SNB-75 > 100 µM | OVCAR-5 > 100 µM | A549 > 100 µM

COC(=O)[C@@]12CC[C@]1(C(=O)OC)C1C(C)=CC(=O)O[C@@]12C (some centres undefined)
> 100 µM: HCT-15
inactive: IGROV-1 > 100 µM | U-251 > 100 µM | Malme-3M > 100 µM | TK-10 > 100 µM | NCI-H226 > 100 µM | ACHN > 100 µM | UACC-62 > 100 µM | MDA-MB-231 > 100 µM | SR > 100 µM | HOP-62 > 100 µM | RPMI-8226 > 100 µM | MOLT-4 > 100 µM | MCF7 > 100 µM | SF-539 > 100 µM | SK-MEL-5 > 100 µM | SNB-75 > 100 µM | OVCAR-5 > 100 µM | A549 > 100 µM

NC1CC(=O)c2c1sc(Cl)c2Cl (centres undefined)
> 100 µM: HCT-15
inactive: IGROV-1 > 100 µM | U-251 > 100 µM | Malme-3M > 100 µM | TK-10 > 100 µM | ACHN > 100 µM | UACC-62 > 100 µM | MDA-MB-231 > 100 µM | SR > 100 µM | CAKI-1 > 100 µM | HOP-62 > 100 µM | RPMI-8226 > 100 µM | MOLT-4 > 100 µM | MCF7 > 100 µM | SF-539 > 100 µM | SK-MEL-5 > 100 µM | SNB-75 > 100 µM | OVCAR-5 > 100 µM | A549 > 100 µM

O=C1c2ccccc2-c2nc(-c3cccs3)cc3c2c1nc1ccccc13
inactive: IGROV-1 12.4 µM | U-251 18.6 µM | Malme-3M 3.56 µM | TK-10 > 100 µM | NCI-H226 47.8 µM | ACHN 34.4 µM | UACC-62 5.41 µM | MDA-MB-231 58.3 µM | SR 6.21 µM | CAKI-1 88.7 µM | HOP-62 22 µM | RPMI-8226 23.2 µM | MOLT-4 37.1 µM | MCF7 13 µM | SF-539 24.5 µM | SNB-75 24.9 µM | OVCAR-5 36.7 µM | A549 9.29 µM
15.2 µM: HCT-15

CCCCC(=O)Oc1ccc2c(C)cc(=O)oc2c1
inactive: IGROV-1 > 100 µM | U-251 > 100 µM | Malme-3M > 100 µM | TK-10 > 100 µM | NCI-H226 > 100 µM | ACHN > 100 µM | UACC-62 > 100 µM | MDA-MB-231 > 100 µM | SR > 100 µM | CAKI-1 > 100 µM | HOP-62 > 100 µM | RPMI-8226 > 100 µM | MOLT-4 > 100 µM | MCF7 > 100 µM | SF-539 > 100 µM | SK-MEL-5 > 100 µM | SNB-75 > 100 µM | OVCAR-5 > 100 µM | A549 > 100 µM

COc1cccc(-c2cccc(SC)n2)n1
inactive: IGROV-1 27.2 µM | U-251 36.7 µM | TK-10 39.2 µM | NCI-H226 15.8 µM | ACHN 36.8 µM | UACC-62 36.2 µM | MDA-MB-231 40.4 µM | SR 18.1 µM | CAKI-1 60 µM | HOP-62 27.9 µM | RPMI-8226 23.4 µM | MOLT-4 21.5 µM | MCF7 31.3 µM | SF-539 32.1 µM | SK-MEL-5 20.5 µM | SNB-75 26.4 µM | OVCAR-5 29.2 µM | A549 23.8 µM
27 µM: HCT-15

CC(C)(C)OC(=O)N/N=C(/N)Cc1ccc(Cl)cc1
> 100 µM: HCT-15
inactive: IGROV-1 > 100 µM | U-251 > 100 µM | Malme-3M > 100 µM | TK-10 > 100 µM | NCI-H226 > 100 µM | ACHN > 100 µM | UACC-62 > 100 µM | MDA-MB-231 > 100 µM | SR 51.6 µM | CAKI-1 > 100 µM | HOP-62 > 100 µM | MOLT-4 > 100 µM | MCF7 > 100 µM | SK-MEL-5 > 100 µM | SNB-75 > 100 µM | OVCAR-5 > 100 µM | A549 > 100 µM

COc1ccc(C2NC(=S)Nc3c2c(=O)oc2c3ccc3ccccc32)cc1 (centres undefined)
53.7 µM: HCT-15
inactive: IGROV-1 > 100 µM | U-251 40.6 µM | Malme-3M > 100 µM | TK-10 99.3 µM | NCI-H226 32.2 µM | ACHN 67.6 µM | UACC-62 45.7 µM | MDA-MB-231 57.8 µM | SR 48.4 µM | CAKI-1 58.3 µM | HOP-62 87.9 µM | RPMI-8226 47.6 µM | MOLT-4 73.5 µM | MCF7 > 100 µM | SK-MEL-5 > 100 µM | SNB-75 33.7 µM | OVCAR-5 > 100 µM | A549 52.1 µM
